Source: ChEMBL document CHEMBL1201862, “PubChem BioAssay data set” (2004)
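These data come from cells grown in 96-well plates and exposed to compound for 48 hours at five concentrations. At the GI50, growth is halved.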 Active and inactive are the calls of the source. Cut-off read from the data, not from the text of the source: active = GI50 up to about 1.1 µM and inactive = higher.

Columns and labels:
Assay in all cases: growth of human tumour cells (NCI), 48 h
NCI/ADR-RES = test system: NCI/ADR-RES
U-251 = test system: U-251
DMS-273 = test system: DMS-273
SW-620 = test system: SW-620
HOP-92 = test system: HOP-92
XF498 = test system: XF498
DMS-114 = test system: DMS-114
UACC-62 = test system: UACC-62
NCI-H522 = test system: NCI-H522
M19-MEL = test system: M19-MEL
OVCAR-8 = test system: OVCAR-8
SK-MEL-28 = test system: SK-MEL-28
NCI-H226 = test system: NCI-H226
MCF7 = test system: MCF7
786-0 = test system: 786-0

Measured: GI50

COc1cc(/N=N\c2cccc(S(=O)(=O)O)c2)ccc1/N=N\c1ccc(/C=C/c2ccc(-n3on3-c3ccc(/C=C/c4ccc(/N=N/c5ccc(/N=N\c6cccc(S(=O)(=O)O)c6)cc5OC)cc4S(=O)(=O)O)c(S(=O)(=O)O)c3)cc2S(=O)(=O)O)c(S(=O)(=O)O)c1
inactive: NCI/ADR-RES > 100 µM | U-251 > 100 µM | DMS-273 > 69.5 µM | SW-620 > 100 µM | HOP-92 > 86.1 µM | XF498 > 83 µM | DMS-114 > 100 µM | UACC-62 > 100 µM | NCI-H522 > 100 µM | M19-MEL > 100 µM | OVCAR-8 > 100 µM | SK-MEL-28 > 100 µM | NCI-H226 > 100 µM | MCF7 > 100 µM

Sc1nnc(-c2ccnc(-c3nnc(S)[nH]3)c2)[nH]1
inactive: U-251 > 100 µM | DMS-273 > 100 µM | SW-620 > 100 µM | XF498 > 79.1 µM | DMS-114 > 100 µM | UACC-62 > 100 µM | 786-0 > 100 µM | NCI-H522 > 100 µM | M19-MEL > 100 µM | OVCAR-8 > 100 µM | SK-MEL-28 > 100 µM | NCI-H226 > 100 µM

COc1ccc([C@H]2c3cc4c(cc3OC(O)(CO)[C@H]2C(=O)O)OCO4)c(OC)c1.COc1ccc([C@H]2c3cc4c(cc3OC3(O)COC(=O)[C@@H]23)OCO4)c(OC)c1 (some centres not stated)
inactive: U-251 41.9 µM | DMS-273 > 100 µM | SW-620 > 100 µM | HOP-92 > 100 µM | XF498 > 100 µM | DMS-114 > 100 µM | UACC-62 41.5 µM | M19-MEL 61.7 µM | OVCAR-8 > 100 µM | SK-MEL-28 35.8 µM | NCI-H226 > 100 µM

O=c1[nH]c(=O)n(C2CC(O)C(CO)O2)cc1C#Cc1ccc(F)cc1 (configuration not stated)
inactive: U-251 > 100 µM | DMS-273 > 100 µM | SW-620 > 100 µM | XF498 > 100 µM | DMS-114 > 100 µM | UACC-62 > 100 µM | 786-0 > 100 µM | NCI-H522 > 100 µM | M19-MEL > 100 µM | OVCAR-8 > 100 µM | SK-MEL-28 > 100 µM | NCI-H226 > 100 µM

N/C(=N\O)N/N=C\c1ccc(O)c(O)c1O
inactive: NCI/ADR-RES 19.5 µM | U-251 > 52.8 µM | DMS-273 13.6 µM | SW-620 19.7 µM | HOP-92 > 55.3 µM | XF498 > 100 µM | DMS-114 21.2 µM | UACC-62 17.3 µM | NCI-H522 24.1 µM | M19-MEL 20.1 µM | OVCAR-8 30.4 µM | SK-MEL-28 > 100 µM | NCI-H226 39.1 µM | MCF7 16.7 µM

Cc1ccc(NC(=O)CSc2nnc(-c3ccc(/N=C\c4ccc(Cl)cc4)cc3)o2)cc1
inactive: U-251 > 100 µM | DMS-273 > 100 µM | SW-620 > 100 µM | XF498 > 100 µM | DMS-114 > 100 µM | UACC-62 > 100 µM | 786-0 > 100 µM | NCI-H522 34.3 µM | M19-MEL > 100 µM | OVCAR-8 > 100 µM | SK-MEL-28 > 100 µM | NCI-H226 > 100 µM

COCOC1CCCC[C@@]1(OCCOCCO[C@@]1(c2ccccc2)CCCC[C@H]1OCOC)c1ccccc1 (some centres not stated)
inactive: U-251 > 100 µM | DMS-273 > 100 µM | SW-620 > 100 µM | XF498 > 100 µM | DMS-114 > 100 µM | UACC-62 > 100 µM | 786-0 46.6 µM | NCI-H522 > 100 µM | M19-MEL > 100 µM | OVCAR-8 > 100 µM | SK-MEL-28 > 100 µM | NCI-H226 > 100 µM

O=C(Nc1ccc2[nH]c3c(-c4ccccc4)nccc3c2c1)c1ccccc1[N+](=O)[O-]
inactive: U-251 2.96 µM | DMS-273 1.76 µM | SW-620 5.06 µM | HOP-92 3.56 µM | XF498 3.59 µM | DMS-114 3.74 µM | OVCAR-8 8.11 µM | SK-MEL-28 4.95 µM | NCI-H226 2.3 µM

O=C(Nc1cccc([N+](=O)[O-])c1)C(=O)C(C(=O)c1ccccc1F)C1OC(=O)C2C=CC=CC21 (configuration not stated)
inactive: U-251 22.3 µM | DMS-273 31.7 µM | SW-620 52.1 µM | HOP-92 > 100 µM | XF498 40.3 µM | UACC-62 28 µM | NCI-H522 18.9 µM | M19-MEL 31.6 µM | OVCAR-8 30.3 µM | SK-MEL-28 30.3 µM | NCI-H226 13.4 µM
